Here are results for three compounds from publication PMC3697074 (Journal of medicinal chemistry, 2011).

In this assay the test system is P. falciparum K1 (CQ-resistant strain). Nature of the assay: Antimalarial activity, chloroquine-resistant strain K1. The assay is classed as cell-based, Plasmodium falciparum.
Regarding `COc1ccc(F)cc1CNCCCNc1ccnc2cc(Oc3ccccc3)ccc12` [3{1,1,4}], the “antimalarial activity against strain K1 (in words)” value (shortened to “antimalarial activity”) was “enhanced potency in strain K1”.

For the compound `COc1cccc(Oc2ccc3c(NCCCNCc4cc(F)ccc4OC)ccnc3c2)c1` [3{1,3,4}], the “antimalarial activity” value was “enhanced potency in strain K1”.

Regarding `COc1ccc(F)cc1CNCCCNc1ccnc2cc(Oc3ccc(F)cc3)ccc12` [3{1,5,4}], the “antimalarial activity” value was “enhanced potency in strain K1”.
